In patent US20220041606A1, “POSITIVE ALLOSTERIC MODULATORS OF THE MUSCARINIC ACETYLCHOLINE RECEPTOR M1” (Vanderbilt University, priority 2020, published 2022):

Legend:
human mAChR M1 [1] = target: T1, human mAChR M1 (Homo sapiens, UniProt P11229); test: mAChR M1 cell-based functional assay (calcium mobilization), PAM activity: increase in the EC20 acetylcholine response; conditions: CHO-K1 cells expressing hM1; potentiation of EC20 acetylcholine response
T1 construct: host or cells: CHO-K1 cells (ATCC), stably transfected using Lipofectamine2000
T1 sequence (P11229 1-460): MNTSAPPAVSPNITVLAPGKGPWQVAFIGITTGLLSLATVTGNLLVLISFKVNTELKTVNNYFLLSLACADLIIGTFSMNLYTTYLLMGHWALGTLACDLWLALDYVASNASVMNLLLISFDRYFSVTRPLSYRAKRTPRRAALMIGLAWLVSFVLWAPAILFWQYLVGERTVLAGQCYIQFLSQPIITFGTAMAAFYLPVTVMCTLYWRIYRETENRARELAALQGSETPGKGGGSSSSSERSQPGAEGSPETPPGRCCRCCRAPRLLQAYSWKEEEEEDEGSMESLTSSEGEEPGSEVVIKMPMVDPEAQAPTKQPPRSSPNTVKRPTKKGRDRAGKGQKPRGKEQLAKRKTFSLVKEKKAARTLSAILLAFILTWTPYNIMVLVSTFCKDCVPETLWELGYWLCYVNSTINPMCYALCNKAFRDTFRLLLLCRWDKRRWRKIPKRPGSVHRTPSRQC
Text: (§1) Chinese hamster ovary (CHO-K1) cells stably expressing rat (r)M1 were purchased from the American Type Culture Collection and cultured according to their indicated protocol. CHO cells stably expressing human (h)M2, hM3, and hM5 were described previously (Levey, et al., 1991); hM1 and hM4 cDNAs were purchased from Missouri S&T cDNA Resource; rM4 cDNA was provided by T. L. Bonner (National Institutes of Health, Bethesda, MID). rM2 and rM3 were cloned from a rat brain cDNA library and sequence verified. hM1, rM2, rM3, hM4, and rM4 cDNAs were used to stably transfect CHO-K1 cells purchased from the American Type Culture Collection using Lipofectamine2000. To make stable rM2, hM2, rM3, hM4, and rM4 cell lines for use in calcium mobilization assays, these cells also were stably transfected with a chimeric G-protein (Gqi5) (provided by B. R. Conklin, University of California, San Francisco) using Lipofectamine 2000. rM1, hM1, rM3, hM3, rM5, and hM5 cells were grown in Ham's F-12 medium containing 10% heat-inactivated fetal bovine serum (FBS), 20 mM HEPES, and 50 μg/mL G418 sulfate. rM2-Gq15, hM2-Gqi5, and hM4-Gqi5 cells were grown in the same medium also containing 500 μg/mL Hygromycin B. Stable rM4-Gqi5 cells were grown in DMEM containing 10% heat-inactivated FBS, 20 mM HEPES, 400 μg/mL G418 sulfate, and 500 μg/mL Hygromycin B.
(§2) For high throughput measurement of agonist-evoked increases in intracellular calcium, CHO-K1 cells stably expressing muscarinic receptors were plated in growth medium lacking G418 and hygromycin at 15,000 cells/20 μL/well in Greiner 384-well black-walled, tissue culture (TC)-treated, clear-bottom plates (VWR). Cells were incubated overnight at 37° C. and 5% CO2. The next day, cells were washed using an ELX 405 (BioTek) with four washes (80 μL) of assay buffer then aspirated to 20 μL. Next, 20 μL of 16 μM Fluo-4/acetoxymethyl ester (Invitrogen, Carlsbad, Calif.) prepared as a 2.3 mM stock in DMSO and mixed in a 1:1 ratio with 10% (w/v) Pluronic F-127 and diluted in assay buffer was added to the wells and the cell plates were incubated for 50 min at 37° C. and 5% CO2. Dye was removed by washing with the ELX 405 (four 80 μL washes of assay buffer) then aspirated to 20 μL. Compound master plates were formatted in an 11 point CRC format (1:3 dilutions) in 100% DMSO with a starting concentration of 10 mM using the BRAVO liquid handler (Agilent). Test compound CRCs were then transferred to daughter plates (240 nL) using the Echo acoustic plate reformatter (Labcyte, Sunnyvale, Calif.) and then diluted into assay buffer (40 μL) to a 2× stock using a Thermo Fisher Combi (Thermo Fisher Scientific, Waltham, Mass.).
(§3) Calcium flux was measured using the Functional Drug Screening System (FDSS) 6000 (Hamamatsu Corporation, Tokyo, Japan) as an increase in the fluorescent static ratio. Compounds were applied to cells (20 μL, 2×) using the automated system of the FDSS 6000 at 4 s into the 300 s protocol and the data were collected at 1 Hz. At 144 s into the 300s protocol, 10 μL of an EC20 concentration of the muscarinic receptor agonist acetylcholine was added (5×), followed by the addition of 12 μL an EC80 concentration of acetylcholine at the 230 s time point (5×). Agonist activity was analyzed as a concentration-dependent increase in calcium mobilization upon compound addition. Emax values for agonist activity are expressed relative to the maximum for acetylcholine. Positive allosteric modulator activity was analyzed as a concentration-dependent increase in the EC20 acetylcholine response. Antagonist activity was analyzed as a concentration-dependent decrease in the EC80 acetylcholine response. Concentration-response curves were generated using a four-parameter logistical equation in XLfit curve fitting software (IDBS, Bridgewater, N.J.) for Excel (Microsoft, Redmond, Wash.) or Prism (GraphPad Software, Inc., San Diego, Calif.). […]

human mAChR M1 [2] = target: T1, human mAChR M1; test: mAChR M1 cell-based functional assay (calcium mobilization), agonist activity upon compound addition; conditions: CHO-K1 cells expressing hM1; for EC50: compound alone, before acetylcholine addition; for Emax: relative to the maximum for acetylcholine
Text: as §1, §2, §3

| SMILES | EC50 (human mAChR M1 [1]) | Emax (human mAChR M1 [1]) | EC50 (human mAChR M1 [2]) | Emax (human mAChR M1 [2]) |
| --- | --- | --- | --- | --- |
| Cn1cc(-c2ccc(Cn3cc(C(=O)N[C@@H]4CC[C@H]4O)c4occc4c3=O)c(F)c2)cn1 (stereo in doubt) [Compound D15, 5-(2-fluoro-4-(1-methyl-1H-pyrazol-4-yl)benzyl)-N-((1R,2R)-2-hydroxycyclobutyl)-4-oxo-4,5-dihydrofuro[3,2-c]pyridine-7-carboxamide] | > 10 µM | 29% | > 10 µM | < 5% |
| Cn1cc2c(-c3cc(F)c(Cn4cc(C(=O)N[C@@H]5CC[C@H]5O)c5occc5c4=O)c(F)c3)cccc2n1 (stereo in doubt) [Compound D21, 5-(2,6-difluoro-4-(2-methyl-2H-indazol-4-yl)benzyl)-N-((1R,2R)-2-hydroxycyclobutyl)-4-oxo-4,5-dihydrofuro[3,2-c]pyridine-7-carboxamide] | 2.19 µM | 75% | > 10 µM | < 5% |
| Cn1ccc(-c2ccc(Cn3cc(C(=O)N[C@H]4CCC[C@@H]4O)c4ncccc4c3=O)c(F)c2)n1 [Compound A3, 6-(2-fluoro-4-(1-methyl-1H-pyrazol-3-yl)benzyl)-N-((1S,2S)-2-hydroxycyclopentyl)-5-oxo-5,6-dihydro-1,6-naphthyridine-8-carboxamide] | 1.66 µM | 83% | > 10 µM | < 5% |
| Cn1ccc(-c2ccc(Cn3cc(C(=O)N[C@@H]4CC[C@H]4O)c4ncccc4c3=O)c(F)c2)n1 [Compound A4, 6-(2-fluoro-4-(1-methyl-1H-pyrazol-3-yl)benzyl)-N-((1R,2R)-2-hydroxycyclobutyl)-5-oxo-5,6-dihydro-1,6-naphthyridine-8-carboxamide] | 3.45 µM | 42% | > 10 µM | < 5% |
| Cn1ccc(-c2ccc(Cn3cc(C(=O)NC4CC5(COC5)C4)c4ncccc4c3=O)c(F)c2)n1 [Compound A5, 6-(2-Fluoro-4-(1-methyl-1H-pyrazol-3-yl)benzyl)-5-oxo-N-(2-oxaspiro[3.3]heptan-6-yl)-5,6-dihydro-1,6-naphthyridine-8-carboxamide] | 2.74 µM | 44% | > 10 µM | < 5% |
| Cn1cc(-c2ccc(Cn3cc(C(=O)N[C@@H]4CC[C@H]4O)c4ncccc4c3=O)c(F)c2)cn1 [Compound A9, 6-(2-fluoro-4-(1-methyl-1H-pyrazol-4-yl)benzyl)-N-((1R,2R)-2-hydroxycyclobutyl)-5-oxo-5,6-dihydro-1,6-naphthyridine-8-carboxamide] | 5.87 µM | 65% | > 10 µM | < 5% |
| Cn1cc(-c2ccc(Cn3cc(C(=O)NC4CCOCC4)c4ncccc4c3=O)c(F)c2)cn1 [Compound A10, 6-(2-fluoro-4-(1-methyl-1H-pyrazol-4-yl)benzyl)-5-oxo-N-(tetrahydro-2H-pyran-4-yl)-5,6-dihydro-1,6-naphthyridine-8-carboxamide] | ≥ 10 µM | 59% | > 10 µM | < 5% |
| Cn1cc(-c2ccc(Cn3cc(C(=O)NC4CC5(COC5)C4)c4ncccc4c3=O)c(F)c2)cn1 [Compound A11, 6-(2-fluoro-4-(1-methyl-1H-pyrazol-4-yl)benzyl)-5-oxo-N-(2-oxaspiro[3.3]heptan-6-yl)-5,6-dihydro-1,6-naphthyridine-8-carboxamide] | 6.75 µM | 58% | > 10 µM | < 5% |
| O=C(N[C@H]1CCOC[C@@H]1O)c1cn(Cc2ccc(-n3cccn3)cc2)c(=O)c2cccnc12 [Compound A12, 6-(4-(1H-pyrazol-1-yl)benzyl)-N-((3R,4S)-3-hydroxytetrahydro-2H-pyran-4-yl)-5-oxo-5,6-dihydro-1,6-naphthyridine-8-carboxamide] | 1.39 µM | 70% |  | 28% |

Stronger by EC50 (human mAChR M1 [1]), values ahead:

| EC50 (human mAChR M1 [1]) | Emax (human mAChR M1 [1]) | EC50 (human mAChR M1 [2]) | Emax (human mAChR M1 [2]) | SMILES |
| --- | --- | --- | --- | --- |
| 0.48 µM | 90% | 7.9 µM | 20% | Cn1ccc(-c2ccc(Cn3cc(C(=O)N[C@H]4CCOC[C@@H]4O)c4ncccc4c3=O)c(F)c2)n1 [Compound A1, 6-(2-Fluoro-4-(1-methyl-1H-pyrazol-3-yl)benzyl)-N-((3R,4S)-3-hydroxytetrahydro-2H-pyran-4-yl)-5-oxo-5,6-dihydro-1,6-naphthyridine-8-carboxamide] |
| 0.73 µM | 91% | > 10 µM | < 5% | Cn1ccc(-c2ccc(Cn3cc(C(=O)N[C@H]4CCCC[C@@H]4O)c4ncccc4c3=O)c(F)c2)n1 [Compound A2, 6-(2-fluoro-4-(1-methyl-1H-pyrazol-3-yl)benzyl)-N-((1S,2S)-2-hydroxycyclohexyl)-5-oxo-5,6-dihydro-1,6-naphthyridine-8-carboxamide] |
| 0.22 µM | 89% | 8.2 µM | 23% | Cn1cc(-c2ccc(Cn3cc(C(=O)N[C@H]4CCOC[C@@H]4O)c4ncccc4c3=O)c(F)c2)cn1 [Compound A6, 6-(2-fluoro-4-(1-methyl-1H-pyrazol-4-yl)benzyl)-N-((3R,4S)-3-hydroxytetrahydro-2H-pyran-4-yl)-5-oxo-5,6-dihydro-1,6-naphthyridine-8-carboxamide] |
| 0.29 µM | 89% |  | 12% | Cn1cc(-c2ccc(Cn3cc(C(=O)N[C@H]4CCCC[C@@H]4O)c4ncccc4c3=O)c(F)c2)cn1 [Compound A7, 6-(2-fluoro-4-(1-methyl-1H-pyrazol-4-yl)benzyl)-N-((1S,2S)-2-hydroxycyclohexyl)-5-oxo-5,6-dihydro-1,6-naphthyridine-8-carboxamide] |
| 1.29 µM | 83% | > 10 µM | < 5% | Cn1cc(-c2ccc(Cn3cc(C(=O)N[C@H]4CCC[C@@H]4O)c4ncccc4c3=O)c(F)c2)cn1 [Compound A8, 6-(2-fluoro-4-(1-methyl-1H-pyrazol-4-yl)benzyl)-N-((1S,2S)-2-hydroxycyclopentyl)-5-oxo-5,6-dihydro-1,6-naphthyridine-8-carboxamide] |
| 1.13 µM | 71% | 8.95 µM | 21% | O=C(N[C@H]1CCCC[C@@H]1O)c1cn(Cc2ccc(-n3cccn3)cc2)c(=O)c2cccnc12 [Compound A13, 6-(4-(1H-pyrazol-1-yl)benzyl)-N-((1S,2S)-2-hydroxycyclohexyl)-5-oxo-5,6-dihydro-1,6-naphthyridine-8-carboxamide] |
